Data set [1] concerns Rattus norvegicus. In words: Antinociceptive activity in Chronic constriction injury rat model assessed as reduction in pain at 250 microg/kg, IM administration and measured after 2 hrs. The format is functional, organism-based. As to conditions: dose 250.0 µg/kg.
Data set [2] deals with T1, Voltage-dependent N-type calcium channel subunit alpha-1B (Homo sapiens, UniProt Q00975). Briefly: Inhibition of human eGFP tagged Cav2.2 channel transfected in HEK293T cells co-expressed with human GABAB receptor assessed as inhibition of Cav2.2-mediated Ba2+ current at 1 uM by whole-cell patch clamp assay. The format is cell-based.
Target sequence in this assay (Q00975 whole entry, looked up): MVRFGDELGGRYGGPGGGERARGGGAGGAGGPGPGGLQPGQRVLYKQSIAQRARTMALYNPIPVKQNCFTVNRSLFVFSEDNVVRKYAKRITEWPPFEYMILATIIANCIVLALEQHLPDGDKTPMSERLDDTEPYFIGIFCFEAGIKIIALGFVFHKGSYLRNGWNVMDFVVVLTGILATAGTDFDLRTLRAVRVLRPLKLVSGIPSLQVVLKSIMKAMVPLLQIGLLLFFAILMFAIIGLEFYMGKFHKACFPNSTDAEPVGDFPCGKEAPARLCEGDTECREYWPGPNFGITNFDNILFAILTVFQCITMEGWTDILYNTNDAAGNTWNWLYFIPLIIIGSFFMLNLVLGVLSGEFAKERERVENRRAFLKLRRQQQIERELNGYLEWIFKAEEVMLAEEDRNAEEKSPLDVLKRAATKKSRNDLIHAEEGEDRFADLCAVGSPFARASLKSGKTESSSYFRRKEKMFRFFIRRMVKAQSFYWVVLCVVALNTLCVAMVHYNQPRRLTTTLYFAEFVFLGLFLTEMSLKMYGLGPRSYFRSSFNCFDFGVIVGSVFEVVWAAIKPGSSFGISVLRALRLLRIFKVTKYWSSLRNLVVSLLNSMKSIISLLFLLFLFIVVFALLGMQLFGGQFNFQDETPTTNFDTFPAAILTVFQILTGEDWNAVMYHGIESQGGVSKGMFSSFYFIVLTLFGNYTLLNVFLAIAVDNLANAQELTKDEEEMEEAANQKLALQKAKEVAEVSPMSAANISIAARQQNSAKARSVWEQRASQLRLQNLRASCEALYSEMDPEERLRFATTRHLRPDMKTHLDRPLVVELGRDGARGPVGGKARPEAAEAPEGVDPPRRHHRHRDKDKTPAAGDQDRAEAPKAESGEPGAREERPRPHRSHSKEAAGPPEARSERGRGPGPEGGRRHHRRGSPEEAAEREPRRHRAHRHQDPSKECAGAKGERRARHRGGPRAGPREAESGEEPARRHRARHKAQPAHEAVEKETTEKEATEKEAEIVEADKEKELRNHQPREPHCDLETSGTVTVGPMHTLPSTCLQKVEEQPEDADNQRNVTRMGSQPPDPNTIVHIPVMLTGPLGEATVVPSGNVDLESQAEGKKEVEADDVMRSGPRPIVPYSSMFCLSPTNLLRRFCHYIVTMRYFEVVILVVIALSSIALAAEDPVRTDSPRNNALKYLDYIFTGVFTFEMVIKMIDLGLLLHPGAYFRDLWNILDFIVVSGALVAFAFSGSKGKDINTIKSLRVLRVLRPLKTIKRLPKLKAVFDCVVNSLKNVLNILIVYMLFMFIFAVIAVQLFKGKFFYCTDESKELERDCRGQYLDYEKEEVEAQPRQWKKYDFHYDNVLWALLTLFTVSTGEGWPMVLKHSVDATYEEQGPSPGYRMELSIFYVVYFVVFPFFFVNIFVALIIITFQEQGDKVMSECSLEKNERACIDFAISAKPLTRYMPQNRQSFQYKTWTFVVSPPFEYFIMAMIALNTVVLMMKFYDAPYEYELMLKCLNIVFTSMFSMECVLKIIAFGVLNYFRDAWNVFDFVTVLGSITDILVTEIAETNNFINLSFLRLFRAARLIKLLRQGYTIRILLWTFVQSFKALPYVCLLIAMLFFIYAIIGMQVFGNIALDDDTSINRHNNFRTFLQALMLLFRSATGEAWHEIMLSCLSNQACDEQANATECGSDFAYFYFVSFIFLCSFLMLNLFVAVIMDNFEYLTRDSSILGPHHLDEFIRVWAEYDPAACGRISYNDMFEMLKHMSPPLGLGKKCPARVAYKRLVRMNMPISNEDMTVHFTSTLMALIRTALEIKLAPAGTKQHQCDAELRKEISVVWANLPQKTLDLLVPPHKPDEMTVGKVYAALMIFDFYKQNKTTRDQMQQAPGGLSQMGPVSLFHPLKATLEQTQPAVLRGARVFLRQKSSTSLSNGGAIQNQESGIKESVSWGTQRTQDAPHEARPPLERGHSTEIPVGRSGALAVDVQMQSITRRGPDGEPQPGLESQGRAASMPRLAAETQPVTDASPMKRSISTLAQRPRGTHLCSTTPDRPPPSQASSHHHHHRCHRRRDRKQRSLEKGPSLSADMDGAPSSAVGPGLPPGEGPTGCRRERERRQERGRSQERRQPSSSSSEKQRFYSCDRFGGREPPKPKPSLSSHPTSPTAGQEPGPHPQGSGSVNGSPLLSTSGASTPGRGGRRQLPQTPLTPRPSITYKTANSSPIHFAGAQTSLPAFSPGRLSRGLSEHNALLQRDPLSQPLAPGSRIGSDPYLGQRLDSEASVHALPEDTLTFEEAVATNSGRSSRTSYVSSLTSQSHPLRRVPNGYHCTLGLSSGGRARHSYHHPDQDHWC
The nature of data set [3]: Stability in human serum assessed as parent compound remaining measured after 24 hrs. The format is ADME, cell-free.
Data set [4] concerns the target Neuronal acetylcholine receptor; alpha9/alpha10 (Homo sapiens, UniProt Q9GZZ6+Q9UGM1). Briefly: Inhibition of human alpha9alpha10 nAChR expressed in acetylcholine-induced Xenopus laevis oocytes assessed as inhibition of acetylcholine-induced current incubated for 5 mins by two electrode voltage-clamp assay. The format is cell-based, Oocyte.
Data set [5] addresses T1, Voltage-dependent N-type calcium channel subunit alpha-1B. Briefly: Inhibition of human eGFP tagged Cav2.2 channel transfected in HEK293T cells co-expressed with human GABAB receptor assessed as inhibition of Cav2.2-mediated Ba2+ current at 100 uM by whole-cell patch clamp assay. The format is cell-based.
Target sequence in this assay (Q00975 whole entry, looked up): as above
For data set [6], the target named is T2, Neuronal acetylcholine receptor; alpha9/alpha10 (Homo sapiens) (UniProt Q9UGM1+Q9GZZ6). In words: Inhibition of human alpha9alpha10 nAChR expressed in acetylcholine-induced Xenopus laevis oocytes assessed as inhibition of acetylcholine-induced current at 30 nM incubated for 5 mins by two electrode voltage-clamp assay. The format is cell-based. The following applies: Oocyte.

Data set [7] in a line: Stability in human serum measured upto 24 hrs. The format is ADME, cell-free.
The subject of data set [8] is Rattus norvegicus. In words: Antinociception activity in Oxaliplatin-induced cold allodynia in rat model assessed as analgesic effect at 250 microg/kg, sc measured after 1 hr. The format is functional, organism-based. The following applies: dose 250.0 µg/kg.
In data set [9] the target is Neuronal acetylcholine receptor; alpha4/beta2 (Homo sapiens) (UniProt P17787+P43681). In words: Inhibition of human alpha4beta2 nAChR expressed in acetylcholine-induced Xenopus laevis oocytes assessed as inhibition of acetylcholine-induced current at 100 nM incubated for 5 mins by two electrode voltage-clamp assay. The format is cell-based. As to conditions: Oocyte.

Data set [10] concerns the target Neuronal acetylcholine receptor; alpha3/beta4 (Homo sapiens) (UniProt P30926+P32297). In words: Inhibition of human alpha3beta4 nAChR expressed in acetylcholine-induced Xenopus laevis oocytes assessed as inhibition of acetylcholine-induced current at 100 nM incubated for 5 mins by two electrode voltage-clamp assay. The format is cell-based. The following applies: Oocyte.

The target of data set [11] is Neuronal acetylcholine receptor; alpha4/beta4 (Homo sapiens) (UniProt P30926+P43681). Briefly: Inhibition of human alpha4beta4 nAChR expressed in acetylcholine-induced Xenopus laevis oocytes assessed as inhibition of acetylcholine-induced current at 100 nM incubated for 5 mins by two electrode voltage-clamp assay. The format is cell-based. The following applies: Oocyte.

The target in data set [12] is T1, Voltage-dependent N-type calcium channel subunit alpha-1B. Briefly: Inhibition of human eGFP tagged Cav2.2 channel transfected in HEK293T cells co-expressed with human GABAB receptor assessed as inhibition of Cav2.2-mediated Ba2+ current by whole-cell patch clamp assay. The format is cell-based.
Target sequence in this assay (Q00975 whole entry): as the sequence (Q00975 whole entry, looked up) above
For data set [13] the target is unchanged. Briefly: Inhibition of human eGFP tagged Cav2.2 channel transfected in HEK293T cells co-expressed with human GABAB receptor assessed as inhibition of Cav2.2-mediated Ba2+ current at 100 uM by whole-cell patch clamp assay relative to control. The format is cell-based.
Target sequence in this assay (Q00975 whole entry, looked up): as above
Data set [14] has as its target Neuronal acetylcholine receptor; alpha3/beta2 (Homo sapiens) (UniProt P17787+P32297). In words: Inhibition of human alpha3beta2 nAChR expressed in acetylcholine-induced Xenopus laevis oocytes assessed as inhibition of acetylcholine-induced current at 100 nM incubated for 5 mins by two electrode voltage-clamp assay. The format is cell-based. As to conditions: Oocyte.

In data set [15] the target is T2, Neuronal acetylcholine receptor; alpha9/alpha10 (Homo sapiens). In words: Inhibition of human alpha9alpha10 nAChR expressed in acetylcholine-induced Xenopus laevis oocytes assessed as inhibition of acetylcholine-induced current at 100 nM incubated for 5 mins by two electrode voltage-clamp assay. The format is cell-based. As to conditions: Oocyte.
For data set [16], the target named is Neuronal acetylcholine receptor subunit alpha-7 (Homo sapiens, UniProt P36544). In words: Inhibition of human alpha7 nAChR expressed in acetylcholine-induced Xenopus laevis oocytes assessed as inhibition of acetylcholine-induced current incubated for 5 mins by two electrode voltage-clamp assay. The format is cell-based, Oocyte.
Chain of Neuronal acetylcholine receptor subunit alpha-7 (P36544 whole entry): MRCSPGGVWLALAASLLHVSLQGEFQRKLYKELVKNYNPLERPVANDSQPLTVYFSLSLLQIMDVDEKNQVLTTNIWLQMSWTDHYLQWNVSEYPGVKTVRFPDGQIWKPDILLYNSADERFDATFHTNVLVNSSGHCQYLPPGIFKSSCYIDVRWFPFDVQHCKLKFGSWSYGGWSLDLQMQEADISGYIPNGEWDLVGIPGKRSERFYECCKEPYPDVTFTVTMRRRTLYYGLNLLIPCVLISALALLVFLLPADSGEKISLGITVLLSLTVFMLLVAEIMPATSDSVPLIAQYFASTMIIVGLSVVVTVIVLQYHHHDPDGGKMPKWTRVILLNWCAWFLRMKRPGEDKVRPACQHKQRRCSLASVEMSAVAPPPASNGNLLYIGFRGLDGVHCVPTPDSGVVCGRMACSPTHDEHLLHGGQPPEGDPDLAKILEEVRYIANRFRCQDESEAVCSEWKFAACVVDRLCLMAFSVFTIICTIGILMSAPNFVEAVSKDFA
Data set [17] has as its system Rattus norvegicus. In words: Antinociception activity in Oxaliplatin-induced cold allodynia in rat model assessed as analgesic effect at 250 microg/kg, iv measured after 1 to 12 hr. The format is functional, organism-based. As to conditions: dose 250.0 µg/kg, time 1-12 hrs.
In data set [18] the test system is Rattus norvegicus. In words: Antinociception activity in Oxaliplatin-induced cold allodynia in rat model assessed as analgesic effect at 250 microg/kg, sc measured after 4 to 8 hr. The format is functional, organism-based. The following applies: dose 250.0 µg/kg, time 4-8 hrs.
Data set [19] is described as follows: Stability in human plasma assessed as half life. The format is ADME, cell-free.

The source made the active and inactive calls. The rule behind the calls is not given here. Where a SMILES comes first, the peptide text is derived from it. [ ]: non-standard residue; d: D form. The star is where a group is joined. X3 = NCCOCCOCCOCCOCCOCCOCCOCCOCCCC(=O)*; Stearoyl = CCCCCCCCCCCCCCCCCC(=O)*; Palmitoyl = CCCCCCCCCCCCCCCC(=O)*; X1 = NCCOCCOCCOCCOCCOCCOCCCC(=O)*; X2 = NCCOCCOCCOCCOCCCC(=O)*; Sar = CNCC(=O)O

Chain of Neuronal acetylcholine receptor; alpha9/alpha10 (Q9UGM1 whole entry): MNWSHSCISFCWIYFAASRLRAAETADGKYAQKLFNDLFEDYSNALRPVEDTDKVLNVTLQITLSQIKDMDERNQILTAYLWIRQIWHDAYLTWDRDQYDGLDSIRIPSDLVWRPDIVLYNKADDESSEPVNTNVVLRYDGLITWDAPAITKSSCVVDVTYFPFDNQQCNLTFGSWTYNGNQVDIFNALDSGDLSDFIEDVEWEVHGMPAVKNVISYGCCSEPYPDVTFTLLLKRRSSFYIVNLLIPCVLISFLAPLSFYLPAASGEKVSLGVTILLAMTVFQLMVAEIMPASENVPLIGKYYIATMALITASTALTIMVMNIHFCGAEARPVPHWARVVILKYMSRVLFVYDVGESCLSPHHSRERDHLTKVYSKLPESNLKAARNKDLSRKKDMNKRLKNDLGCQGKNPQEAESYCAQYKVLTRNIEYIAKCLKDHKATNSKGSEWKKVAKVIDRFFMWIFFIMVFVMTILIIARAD
Chain of Neuronal acetylcholine receptor; alpha9/alpha10 (Q9GZZ6 whole entry): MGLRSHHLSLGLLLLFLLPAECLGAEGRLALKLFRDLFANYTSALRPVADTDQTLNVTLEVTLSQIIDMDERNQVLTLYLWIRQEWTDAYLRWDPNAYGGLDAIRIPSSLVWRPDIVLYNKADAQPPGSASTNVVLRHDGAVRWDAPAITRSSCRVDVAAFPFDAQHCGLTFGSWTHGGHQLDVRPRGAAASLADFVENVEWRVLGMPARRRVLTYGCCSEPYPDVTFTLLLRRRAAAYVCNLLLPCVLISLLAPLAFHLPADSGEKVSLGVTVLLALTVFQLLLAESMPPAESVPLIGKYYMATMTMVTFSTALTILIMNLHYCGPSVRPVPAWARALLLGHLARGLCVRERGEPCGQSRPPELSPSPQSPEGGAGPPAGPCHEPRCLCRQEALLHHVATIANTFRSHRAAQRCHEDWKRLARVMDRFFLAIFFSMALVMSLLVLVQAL

On to `CC[C@H](C)[C@H](NC(=O)[C@H](CCCNC(=N)N)NC(=O)[C@H](CCCNC(=N)N)NC(=O)[C@H](Cc1ccc(O)cc1)NC(=O)[C@H](CCCNC(=N)N)NC(=O)[C@H](CCCNC(=N)N)NC(=O)[C@H](CCCNC(=N)N)NC(=O)[C@H](CCCNC(=N)N)NC(=O)[C@H](CC(=O)O)NC(=O)[C@H](Cc1ccc(O)cc1)NC(=O)[C@@H]1CCCN1C(=O)[C@H](CO)NC(=O)[C@H](CCCNC(=N)N)NC(=O)[C@H](Cc1ccc(O)cc1)NC(=O)[C@H](CCCNC(=N)N)NC(=O)CNC(=O)CCCOCCOCCOCCOCCOCCOCCOCCOCCN)C(=O)N[C@H](C(=O)N[C@@H](CC(=O)O)C(N)=O)[C@@H](C)O` (X3-GRYRSPYDRRRRYRRITD-NH2), for which the outcome with Rattus norvegicus [1] was inactive. In addition, the inhibition result is reported as “Active; Compound Showed Weak Inhibitory Activity” in data set [2] and “Active; Compound Showed Minimal Activity” in data set [5]. The share remaining at 24 h in data set [3] was over 80%. Moreover, in data set [4], the IC50 stood at 11.8 nM. Moreover, in data set [6], the inhibition result is “Active”.
For `CC[C@H](C)[C@H](NC(=O)[C@H](CCCNC(=N)N)NC(=O)[C@H](CCCNC(=N)N)NC(=O)[C@H](Cc1ccc(O)cc1)NC(=O)[C@H](CCCNC(=N)N)NC(=O)[C@H](CCCNC(=N)N)NC(=O)[C@H](CCCNC(=N)N)NC(=O)[C@H](CCCNC(=N)N)NC(=O)[C@H](CC(=O)O)NC(=O)[C@H](Cc1ccc(O)cc1)NC(=O)[C@@H]1CCCN1C(=O)[C@H](CO)NC(=O)[C@H](CCCNC(=N)N)NC(=O)[C@H](Cc1ccc(O)cc1)NC(=O)[C@H](CCCNC(=N)N)NC(=O)CNC(=O)CCCOCCOCCOCCOCCN)C(=O)N[C@H](C(=O)N[C@@H](CC(=O)O)C(N)=O)[C@@H](C)O` (X2-GRYRSPYDRRRRYRRITD-NH2), the outcome in the data set with Rattus norvegicus [1] was inactive. Further, the inhibition result in [2] is recorded as “Active; Compound Showed Weak Inhibitory Activity”; in data set [5], “Active; Compound Showed Minimal Activity”. In addition, in data set [3], the amount remaining at 24 h is over 80%. Further, the IC50 in data set [4] turned out to be 7.8 nM. For the same molecule, in [6], the inhibition entry was “Active”.
On to `CCCCCCCCCCCCCCCCCC(=O)NCC(=O)N[C@@H](CCCNC(=N)N)C(=O)N[C@@H](Cc1ccc(O)cc1)C(=O)N[C@@H](CCCNC(=N)N)C(=O)N[C@@H](CO)C(=O)N1CCC[C@H]1C(=O)N[C@@H](Cc1ccc(O)cc1)C(=O)N[C@@H](CC(=O)O)C(=O)N[C@@H](CCCNC(=N)N)C(=O)N[C@@H](CCCNC(=N)N)C(=O)N[C@@H](CCCNC(=N)N)C(=O)N[C@@H](CCCNC(=N)N)C(=O)N[C@@H](Cc1ccc(O)cc1)C(=O)N[C@@H](CCCNC(=N)N)C(=O)N[C@@H](CCCNC(=N)N)C(=O)N[C@H](C(=O)N[C@H](C(=O)N[C@@H](CC(=O)O)C(N)=O)[C@@H](C)O)[C@@H](C)CC` (Stearoyl-GRYRSPYDRRRRYRRITD-NH2), for which the Stability entry in data set [7] is reported as “Stable”. In addition, the inhibition entry in data set [2] is listed as “Active; Compound Showed Weak Inhibitory Activity”; in data set [5], “Active; Compound Showed Minimal Activity”. Moreover, the inhibition entry in data set [6] is “inactive”.
With `CC[C@H](C)[C@H](NC(=O)[C@H](CCCNC(=N)N)NC(=O)[C@H](CCCNC(=N)N)NC(=O)[C@H](Cc1ccc(O)cc1)NC(=O)[C@H](CCCNC(=N)N)NC(=O)[C@H](CCCNC(=N)N)NC(=O)[C@H](CCCNC(=N)N)NC(=O)[C@H](CCCNC(=N)N)NC(=O)[C@H](CC(=O)O)NC(=O)[C@H](Cc1ccc(O)cc1)NC(=O)[C@@H]1CCCN1C(=O)[C@H](CO)NC(=O)[C@H](CCCNC(=N)N)NC(=O)[C@H](Cc1ccc(O)cc1)NC(=O)[C@H](CCCNC(=N)N)NC(=O)CNC)C(=O)N[C@H](C(=O)N[C@@H](CC(=O)O)C(N)=O)[C@@H](C)O` (H-[Sar]RYRSPYDRRRRYRRITD-NH2), the outcome with Rattus norvegicus [8] was inactive. For the same molecule, the inhibition entry in data set [9] and in [6] was “Active” each time. Also, the inhibition entry in data set [10], in [11], in data set [14] and in data set [15] was “inactive” each time. For the same molecule, the IC50 is 14.2 nM in [4], 7800 nM in data set [12] and 121 nM in data set [16]. The inhibition in data set [13] worked out at 100%. For the same molecule, the outcome with Rattus norvegicus [17] and with Rattus norvegicus [18] was Active.
On to `CC[C@H](C)[C@H](NC(=O)[C@H](CCCNC(=N)N)NC(=O)[C@H](CCCNC(=N)N)NC(=O)[C@H](Cc1ccc(O)cc1)NC(=O)[C@H](CCCNC(=N)N)NC(=O)[C@H](CCCNC(=N)N)NC(=O)[C@H](CCCNC(=N)N)NC(=O)[C@H](CCCNC(=N)N)NC(=O)[C@H](CC(=O)O)NC(=O)[C@H](Cc1ccc(O)cc1)NC(=O)[C@@H]1CCCN1C(=O)[C@H](CO)NC(=O)[C@H](CCCNC(=N)N)NC(=O)[C@H](Cc1ccc(O)cc1)NC(=O)[C@H](CCCNC(=N)N)NC(=O)CNC(=O)CCCOCCOCCOCCOCCOCCOCCN)C(=O)N[C@H](C(=O)N[C@@H](CC(=O)O)C(N)=O)[C@@H](C)O` (X1-GRYRSPYDRRRRYRRITD-NH2), for which the outcome in the data set on Rattus norvegicus [1] was inactive. Further, the figures for the inhibition result in data set [2] and in data set [5] were “Active; Compound Showed Weak Inhibitory Activity” and “Active; Compound Showed Minimal Activity”, respectively. Also, the fraction remaining at 24 h in [3] is over 80%. Besides, in data set [4], the IC50 is 15.9 nM. The inhibition entry in data set [6] was “Active”.
Turning to `CCCCCCCCCCCCCCCC(=O)NCC(=O)N[C@@H](CCCNC(=N)N)C(=O)N[C@@H](Cc1ccc(O)cc1)C(=O)N[C@@H](CCCNC(=N)N)C(=O)N[C@@H](CO)C(=O)N1CCC[C@H]1C(=O)N[C@@H](Cc1ccc(O)cc1)C(=O)N[C@@H](CC(=O)O)C(=O)N[C@@H](CCCNC(=N)N)C(=O)N[C@@H](CCCNC(=N)N)C(=O)N[C@@H](CCCNC(=N)N)C(=O)N[C@@H](CCCNC(=N)N)C(=O)N[C@@H](Cc1ccc(O)cc1)C(=O)N[C@@H](CCCNC(=N)N)C(=O)N[C@@H](CCCNC(=N)N)C(=O)N[C@H](C(=O)N[C@H](C(=O)N[C@@H](CC(=O)O)C(N)=O)[C@@H](C)O)[C@@H](C)CC` (Palmitoyl-GRYRSPYDRRRRYRRITD-NH2), in data set [7], the Stability result was “Stable”. The results for the inhibition result in data set [2] and in [5] were “Active; Compound Showed Weak Inhibitory Activity” and “Active; Compound Showed Minimal Activity”, respectively. Moreover, in data set [6], the inhibition result was “inactive”.
As for H-GRYRSPYDRRRRYRRITD-NH2, in [19], the half-life is under 30 min.
